Laboratory results published in ChEMBL document CHEMBL2440076, “New triarylpyrazoles as broad-spectrum anticancer agents: design, synthesis, and biological evaluation” (Eur J Med Chem, 2013).

Columns and labels:
DU-145 = assay: Growth inhibition of human DU145 cells assessed as cell growth at 5X10'-6 M after 48 hrs by sulforhodamine B assay; assay type: functional; conditions: DU-145, 48 h, read-out: Activity
[1] = Growth inhibition of human NCI-ADR-RES cells assessed as cell growth at 5X10'-6 M after 48 hrs by sulforhodamine B assay; assay type: functional; conditions: read-out: Activity

| Compound | growth at 5 µM (DU-145) | growth at 5 µM [1] |
| --- | --- | --- |
| O=C(Nc1cccc(-n2cc(-c3ccncc3)c(-c3ccc(Cl)c(O)c3)n2)c1)Nc1cc(C(F)(F)F)cc(C(F)(F)F)c1 | 5% | 1% |
| COc1cc(-c2nn(-c3cccc(NC(=O)Nc4cccc(C(F)(F)F)c4)c3)cc2-c2ccncc2)ccc1Cl | 14% | -10% |
